The values that follow are results of earlier work, collected in paper PMC6916687 (Drug Design, Development and Therapy, 2019).

pIC50: −log10 of the molar value.

One series has as its system MDA-MB-231 cells. The note with it: read-out: IC50 for MDA-MB-231 cells.
For the next series, the system named is QGY-7703 cells. The note with it: read-out: IC50 for QGY-7703 cells.

With `Cc1ccc2c(=O)c3cccc(CC(=O)O)c3oc2c1C` [DMXAA, 5,6-dimethylxanthone-4-acetic acid], the pIC50 in the series with MDA-MB-231 cells was 4.32.

`O=c1c2ccccc2oc2cc(-c3ccccc3)ccc12` [3-phenylxanthone]: the pIC50 in the series with QGY-7703 cells was 5.20.

Usually pIC50 stands for the IC50 on a negative log10 scale, so that one unit is a factor of ten.
